The subject of assay [1] is erythrocytic stages of P. falciparum NF54. Description: Plasmodium falciparum in vitro assay, [3H] hypoxanthine incorporation. In kind it is cell-based. Conditions: Plasmodium falciparum, Erythrocyte, 72 h, P. falciparum NF54 in human red blood cells, 48 h + 24 h incubation. How it is done:
In Vitro Antimalarial Activity: Plasmodium falciparum In Vitro Assay In vitro activity against erythrocytic stages of P. falciparum in human red blood cells is determined using a [^3H] hypoxanthine incorporation assay. […] Thereafter, the parasite cultures incubated in screening medium containing washed human red blood cells at 2.5% hematocrit (0.3% parasitemia) are added to the serially diluted compounds and incubated in a humidifying atmosphere at 37° C., 4% CO2, 3% O2, and 93% N2. After 48 h, [^3H] hypoxanthine (0.5 μCi) is added to each well of a plate. The plates are incubated for a further 24 h under the same conditions then harvested with a Betaplate cell harvester (Wallac) and washed with distilled water. The dried filters are inserted into a plastic foil with 10 mL of scintillation fluid, and counted in a Betaplate liquid scintillation counter. IC50 values are calculated from sigmoidal inhibition curves using Microsoft Excel.

For assay [2], the system named is P. berghei strain GFP-ANKA. The assay is described as follows: In vivo antimalarial efficacy study in infected NMRI mice. The conditions noted are these: Plasmodium berghei; female NMRI mice infected with P. berghei GFP-ANKA; single oral dose of 100 mg/kg 24 h after infection; parasitemia 48 h after drug treatment (day 3); read-out: Activity (inhibition of parasitemia) expressed as a percent relative to the control group. The procedure:
In Vivo Antimalarial Efficacy Studies
In vivo antimalarial activity is assessed for groups of three female NMRI mice (20-22 g) intravenously infected on day 0 with P. berghei strain GFP-ANKA (0.2 mL heparinized saline suspension containing 2×10^7 parasitized erythrocytes). In control mice, parasitemia typically rises to approximately 40% by day 3 after infection. Compounds are formulated in Tween 80/ethanol (7%/3%) usually at concentrations of 10 mg/mL. Compounds are administered in a volume of 10 mL/kg orally as single doses (1×100 mg/kg, 24 h after infection). 48 h after drug treatment (day 3 post-infection), 1 μl tail blood is taken, resuspended in 1 mL PBS buffer and parasitemia determined with a FACScan (Becton Dickinson) by counting 100′000 red blood cells. Activity is calculated as the difference between the mean value of the control group and treated groups expressed as a percent relative to the control group.

The mark [3] stands for this setting: screening medium with Albumax (5 g/L), read-out: IC50 on NF54 (with Albumax).
Where [4] appears, read: screening medium with human serum (50% final concentration), read-out: IC50 on NF54 (with 50% Serum).

Read-outs that look alike come from different tables or passages of the source.

For the compound `CC(=O)N1CCN(c2ccc(CN(C(=O)C=Cc3ccc(C(F)(F)F)cc3)[C@@H](Cc3ccccc3)C(=O)N3CCN(Cc4ccc(S(C)(=O)=O)cc4)CC3)cc2)CC1` [Example 47, (S)-N-(4-(4-acetylpiperazin-1-yl)benzyl)-N-(1-(4-(4-(methylsulfonyl)benzyl)piperazin-1-yl)-1-oxo-3-phenylpropan-2-yl)-3-(4-(trifluoromethyl)phenyl)acrylamide], the IC50 in assay [1] (setting [3]) amounted to 0.5 nM; in assay [1] (setting [4]) it was 3.5 nM. Moreover, the inhibition in vivo at 100 mg/kg in assay [2] turned out to be 98.4%.

For the compound `CCCOc1ccc(C=CC(=O)N(Cc2ccc(N3CCN(C(C)=O)CC3)cc2)[C@@H](Cc2ccccc2)C(=O)N2CCN(Cc3ccc(N(C)CCO)cc3)CC2)cc1` [Example 57, (S)-N-[4-(4-Acetyl-piperazin-1-yl)-benzyl]-N-[1-benzyl-2-(4-{4-[(2-hydroxy-ethyl)-methyl-amino]-benzyl}-piperazin-1-yl)-2-oxo-ethyl]-3-(4-propoxy-phenyl)-acrylamide], the results for the IC50 in assay [1] (setting [3]) and in assay [1] (setting [4]) were 1.7 nM and 5.1 nM, respectively. In addition, the inhibition in vivo at 100 mg/kg in assay [2] was determined as 98.2%.

`CC(=O)N1CCN(c2ccc(CN(C(=O)C=Cc3ccc(C(C)C)cc3)[C@@H](Cc3ccccc3)C(=O)N3CCN(Cc4ccc(C#N)cc4)CC3)cc2)CC1` [Example 32, (S)-N-[4-(4-Acetyl-piperazin-1-yl)-benzyl]-N-{1-benzyl-2-[4-(4-cyano-benzyl)-piperazin-1-yl]-2-oxo-ethyl}-3-(4-isopropyl-phenyl)-acrylamide]: the IC50 is 0.5 nM in assay [1] (setting [3]) and 4.4 nM in assay [1] (setting [4]). Also, in assay [2], the inhibition in vivo at 100 mg/kg stood at 98.5%.

Regarding `CCOc1ccc(C=CC(=O)N(Cc2ccc(N3CCN(C(C)=O)CC3)cc2)[C@@H](Cc2ccccc2)C(=O)N2CCN(Cc3ccccc3)CC2)cc1` [Example 4, (S)-N-[4-(4-Acetyl-piperazin-1-yl)-benzyl]-N-[1-benzyl-2-(4-benzyl-piperazin-1-yl)-2-oxo-ethyl]-3-(4-ethoxy-phenyl)-acrylamide], the concentration for half-maximal inhibition (IC50) in assay [1] (setting [3]) came out at 1.9 nM; in assay [1] (setting [4]) it was 10 nM. Further, in assay [2], the inhibition in vivo at 100 mg/kg was found to be 97.4%.

In the case of `CC(=O)N1CCN(c2ccc(CN(C(=O)C=Cc3ccc(C(F)(F)F)cc3)[C@@H](Cc3ccccc3)C(=O)N3CCN(Cc4ccc(C#N)cc4)CC3)cc2)CC1` [Example 24, (S)-N-[4-(4-Acetyl-piperazin-1-yl)-benzyl]-N-{1-benzyl-2-[4-(4-cyano-benzyl)-piperazin-1-yl]-2-oxo-ethyl}-3-(4-trifluoromethyl-phenyl)-acrylamide], the half-maximal inhibitory concentration (IC50) in assay [1] (setting [3]) is 2.8 nM; in assay [1] (setting [4]), 13.9 nM. Besides, the inhibition in vivo at 100 mg/kg in assay [2] turned out to be 79.2%.

As to `COC(=O)c1ccc(C=CC(=O)N(Cc2ccc(N3CCN(C(C)=O)CC3)cc2)[C@@H](Cc2ccccc2)C(=O)N2CCN(Cc3ccccc3)CC2)cc1` [Example 5, (S)-4-(2-{[4-(4-Acetyl-piperazin-1-yl)-benzyl]-[1-benzyl-2-(4-benzyl-piperazin-1-yl)-2-oxo-ethyl]-carbamoyl}-vinyl)-benzoic acid methyl ester], the IC50 was 3.9 nM in assay [1] (setting [3]) and 12 nM in assay [1] (setting [4]). Also, the inhibition in vivo at 100 mg/kg in assay [2] was below 40%.

As for `CC(=O)N1CCN(c2ccc(CN(C(=O)C=Cc3ccc(C(C)C)cc3)[C@@H](Cc3ccccc3)C(=O)N3CCN(Cc4ccccc4)CC3)cc2)CC1` [Example 10, (S)-N-[4-(4-Acetyl-piperazin-1-yl)-benzyl]-N-[1-benzyl-2-(4-benzyl-piperazin-1-yl)-2-oxo-ethyl]-3-(4-isopropyl-phenyl)-acrylamide], the 50% inhibitory concentration (IC50) was found to be 3 nM in assay [1] (setting [3]) and 8.6 nM in assay [1] (setting [4]). In assay [2], the inhibition in vivo at 100 mg/kg is 96%.

In the case of `CC(=O)N1CCN(c2ccc(CN(C(=O)C=Cc3ccc(OC(F)(F)F)cc3)[C@@H](Cc3ccccc3)C(=O)N3CCN(Cc4ccc(C#N)cc4)CC3)cc2)CC1` [Example 33, (S)-N-[4-(4-Acetyl-piperazin-1-yl)-benzyl]-N-{1-benzyl-2-[4-(4-cyano-benzyl)-piperazin-1-yl]-2-oxo-ethyl}-3-(4-trifluoromethoxy-phenyl)-acrylamide], the results for the concentration for half-maximal inhibition (IC50) in assay [1] (setting [3]) and in assay [1] (setting [4]) were 3.3 nM and 10.9 nM, respectively. Further, the inhibition in vivo at 100 mg/kg in assay [2] was 97.4%.

For `CC(=O)N1CCN(c2ccc(CN(C(=O)C=Cc3ccc(C(C)(C)C)cc3)[C@@H](Cc3ccccc3)C(=O)N3CCN(Cc4ccc(Cl)cc4)CC3)cc2)CC1` [Example 43, (S)-N-[4-(4-Acetyl-piperazin-1-yl)-benzyl]-N-{1-benzyl-2-[4-(4-chloro-benzyl)-piperazin-1-yl]-2-oxo-ethyl}-3-(4-tert-butyl-phenyl)-acrylamide], the IC50 in assay [1] (setting [3]) was 1.1 nM; in assay [1] (setting [4]), 13.5 nM. Also, the inhibition in vivo at 100 mg/kg in assay [2] was 98.7%.

`CCc1ccc(C=CC(=O)N(Cc2ccc(N3CCN(C(C)=O)CC3)cc2)[C@@H](Cc2ccccc2)C(=O)N2CCN(Cc3ccc(N(C)CCO)cc3)CC2)cc1` [Example 59, (S)-N-[4-(4-Acetyl-piperazin-1-yl)-benzyl]-N-[1-benzyl-2-(4-{4-[(2-hydroxy-ethyl)-methyl-amino]-benzyl}-piperazin-1-yl)-2-oxo-ethyl]-3-(4-ethyl-phenyl)-acrylamide]: the IC50 in assay [1] (setting [3]) turned out to be 1.6 nM; in assay [1] (setting [4]), 3.8 nM. The inhibition in vivo at 100 mg/kg in assay [2] stood at 96.5%.

In the case of `CCCOc1ccc(C=CC(=O)N(Cc2ccc(N3CCN(C(C)=O)CC3)cc2)[C@@H](Cc2ccccc2)C(=O)N2CCN(Cc3ccc(Cl)cc3)CC2)cc1` [Example 38, (S)-N-[4-(4-Acetyl-piperazin-1-yl)-benzyl]-N-{1-benzyl-2-[4-(4-chloro-benzyl)-piperazin-1-yl]-2-oxo-ethyl}-3-(4-propoxy-phenyl)-acrylamide], the figures for the half-maximal inhibitory concentration (IC50) in assay [1] (setting [3]) and in assay [1] (setting [4]) were 1.8 nM and 9 nM, respectively. For the same compound, the inhibition in vivo at 100 mg/kg in assay [2] was 98.5%.

On to `CC(=O)N1CCN(c2ccc(CN(C(=O)C=Cc3ccc(C(C)C)cc3)[C@@H](Cc3ccccc3)C(=O)N3CCN(Cc4ccc(N(C)C)cc4)CC3)cc2)CC1` [Example 23, (S)-N-[4-(4-Acetyl-piperazin-1-yl)-benzyl]-N-{1-benzyl-2-[4-(4-dimethylamino-benzyl)-piperazin-1-yl]-2-oxo-ethyl}-3-(4-isopropyl-phenyl)-acrylamide], for which the IC50 in assay [1] (setting [3]) worked out at 1.3 nM; in assay [1] (setting [4]), 9.5 nM. Besides, the inhibition in vivo at 100 mg/kg in assay [2] was found to be 99.1%.

Turning to `CC(=O)N1CCN(c2ccc(CN(C(=O)C=Cc3ccc(S(C)(=O)=O)cc3)[C@@H](Cc3ccccc3)C(=O)N3CCN(Cc4ccc(N(C)C)cc4)CC3)cc2)CC1` [Example 16, (S)-N-[4-(4-Acetyl-piperazin-1-yl)-benzyl]-N-{1-benzyl-2-[4-(4-dimethylamino-benzyl)-piperazin-1-yl]-2-oxo-ethyl}-3-(4-methanesulfonyl-phenyl)-acrylamide], the IC50 in assay [1] (setting [3]) amounted to 5.5 nM; in assay [1] (setting [4]) it was 13.3 nM. Also, the inhibition in vivo at 100 mg/kg in assay [2] is 85.9%.

On to `CC(=O)N1CCN(c2ccc(CN(C(=O)C=Cc3ccc(F)cc3)[C@@H](Cc3ccccc3)C(=O)N3CCN(Cc4ccc(N(C)C)cc4)CC3)cc2)CC1` [Example 72, (S)-N-[4-(4-Acetyl-piperazin-1-yl)benzyl]-N-{1-(4-(4-(dimethylamino)benzyl)piperazin-1-yl)-1-oxo-3-phenylpropan-2-yl}-3-(4-fluorophenyl)acrylamide], for which the values for the 50% inhibitory concentration (IC50) in assay [1] (setting [3]) and in assay [1] (setting [4]) were 10 nM and 91 nM, respectively.

As to `CCCc1ccc(C=CC(=O)N(Cc2ccc(N3CCN(C(C)=O)CC3)cc2)[C@@H](Cc2ccccc2)C(=O)N2CCN(Cc3ccc(N(C)C)cc3)CC2)cc1` [Example 68, (S)-N-[4-(4-Acetyl-piperazin-1-yl)benzyl]-N-{1-(4-(4-(dimethylamino)benzyl)piperazin-1-yl)-1-oxo-3-phenylpropan-2-yl}-3-(4-propylphenyl)acrylamide], the 50% inhibitory concentration (IC50) in assay [1] (setting [3]) was 0.7 nM; in assay [1] (setting [4]), 8 nM.

Take `CC(=O)N1CCN(c2ccc(CN(C(=O)C=Cc3ccc(C#N)cc3)[C@@H](Cc3ccccc3)C(=O)N3CCN(Cc4ccc(N(C)C)cc4)CC3)cc2)CC1` [Example 71, (S)-N-[4-(4-Acetyl-piperazin-1-yl)benzyl]-3-(4-cyanophenyl)-N-{1-(4-(4-(dimethylamino)benzyl)piperazin-1-yl)-1-oxo-3-phenylpropan-2-yl}acrylamide]: the concentration for half-maximal inhibition (IC50) in assay [1] (setting [3]) is 18 nM; in assay [1] (setting [4]) it was 62 nM.

Turning to `CC(=O)N1CCN(c2ccc(CN(C(=O)C=Cc3ccc(C(F)(F)F)cc3)[C@@H](Cc3ccccc3)C(=O)N3CCN(Cc4ccc(OC(C)C)cc4)CC3)cc2)CC1` [Example 65, (S)-N-[4-(4-Acetyl-piperazin-1-yl)-benzyl]-N-{1-benzyl-2-[4-(4-isopropoxy-benzyl)-piperazin-1-yl]-2-oxo-ethyl}-3-(4-trifluoromethyl-phenyl)-acrylamide], the IC50 in assay [1] (setting [3]) was 2.8 nM; in assay [1] (setting [4]) it was 14 nM.

Usually IC50 stands for the midpoint of a concentration-inhibition curve.

(Values after patent US8889688B2, “Piperazines as antimalarial agents” (Actelion Pharmaceuticals Ltd., priority 2011, dated 2014).)
